Assay [1] has as its target T1, human ENPP-1 enzyme (Homo sapiens, UniProt P22413).
T1 construct: purchased R&D Systems
T1 sequence (P22413 1-925): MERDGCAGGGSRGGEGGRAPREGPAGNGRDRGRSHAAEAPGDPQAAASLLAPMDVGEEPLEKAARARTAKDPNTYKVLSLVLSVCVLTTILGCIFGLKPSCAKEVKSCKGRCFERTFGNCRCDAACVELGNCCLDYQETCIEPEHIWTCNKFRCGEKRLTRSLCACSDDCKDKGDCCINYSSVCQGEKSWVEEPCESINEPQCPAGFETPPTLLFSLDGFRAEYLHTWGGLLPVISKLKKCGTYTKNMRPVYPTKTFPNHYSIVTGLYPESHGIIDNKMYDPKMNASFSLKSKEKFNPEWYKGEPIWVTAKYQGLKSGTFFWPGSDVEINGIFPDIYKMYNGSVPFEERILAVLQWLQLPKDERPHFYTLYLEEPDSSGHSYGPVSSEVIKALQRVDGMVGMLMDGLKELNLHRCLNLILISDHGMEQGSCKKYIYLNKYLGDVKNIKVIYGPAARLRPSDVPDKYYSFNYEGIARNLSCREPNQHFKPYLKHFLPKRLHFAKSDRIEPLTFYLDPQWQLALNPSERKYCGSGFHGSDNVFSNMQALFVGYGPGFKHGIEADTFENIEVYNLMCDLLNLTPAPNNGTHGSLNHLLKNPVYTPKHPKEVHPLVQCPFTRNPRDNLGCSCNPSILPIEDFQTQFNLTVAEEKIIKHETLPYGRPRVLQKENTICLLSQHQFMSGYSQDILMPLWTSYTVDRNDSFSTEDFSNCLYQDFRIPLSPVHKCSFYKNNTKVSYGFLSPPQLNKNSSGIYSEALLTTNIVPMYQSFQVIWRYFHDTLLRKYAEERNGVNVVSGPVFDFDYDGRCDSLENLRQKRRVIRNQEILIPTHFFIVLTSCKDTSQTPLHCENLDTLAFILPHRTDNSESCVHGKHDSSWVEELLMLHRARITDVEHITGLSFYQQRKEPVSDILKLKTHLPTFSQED
Put plainly: ENPP1 Enzyme Assay with cGAMP Substrate (AMP-Glo). The class given is biochemical. The settings on record: 20 μM 2′3′-cGAMP substrate, 5 ng/well enzyme; for inhibition at 10 µM: 10 uM compound; for inhibition at 1 µM: 1 uM compound. From the text:
ENPP1 Enzyme Assay with cGAMP Substrate:
Ectonucleotide pyrophosphatase/phosphodiesterase 1 (ENPP-1) is a transmembrane glycoprotein that hydrolyzes nucleotides and nucleotide derivatives with the formation of nucleoside-5′-monophosphates. ENPP-1 hydrolyzes 2′3′-cGAMP (cGAMP), breaking it down into 5′-AMP and 5′-GMP. The 5′-AMP formed from the reaction is detected using the AMP-Glo® Kit (Promega). The assay kit contains two reagents. The first reagent terminates the enzymatic reaction, removes ATP (using adenylyl cyclase), and converts 5′-AMP produced into ADP (using polyphosphate: AMP phosphotransferase). The second reagent converts ADP to ATP (using adenylate kinase) and generates light from ATP using the luciferin/luciferase reaction. The amount of light measured is proportional to the amount of 5′-AMP produced by ENPP1.
Different concentrations of exemplary ENPP1 inhibitors (synthetic molecules #1-7; see Table 1) were pre-incubated with 5 ng/well of human ENPP-1 enzyme (R&D Systems) for 15 minutes at 37° C. The reaction was initiated by adding 20 μM 2′3′-cGAMP and incubating for 30 minutes at 37° C. The final assay reaction mixture contained a buffer of 50 mM Tris pH 8.0, 250 mM NaCl, 0.5 mM CaCl2, 1 μM ZnCl2 and 1% DMSO. At the end of the incubation, the reaction was stopped by adding 12 μl of AMP-Glo reagent-1 and mixing the reaction uniformly for 5 minutes, followed by incubation at room temperature for one hour. Then 25 μl of AMP Glo reagent-2 was added to the reaction, mixed uniformly with a pipette, and incubated at room temperature for one hour to convert the ADP formed from reagent-1 to ATP and light. The generated light was measured in a Perkin Elmer Victor® instrument. Maximal activity control samples (containing enzyme, substrate, and buffer in the absence of ENPP1 inhibitors: MAX) and background control samples (containing enzyme, substrate, and buffer plus a fully inhibitory concentration (3 μM) of the reference ENPP1 Inhibitor, MV-0000002: MIN) were simultaneously evaluated in order to calculate the percent inhibition at each compound concentration as follows:
% inhibition=(([MAX−MIN]−[COMPOUND−MIN])/[MAX−MIN])*100
The IC50 values for percent inhibition versus compound concentration were determined by fitting the inhibition curves using a four-parameter variable slope model in GraphPad Prism® software. Ki values are derived from the IC50 values using the Cheng-Prusoff equation: […]

For assay [2], the target named is T1, human ENPP-1 enzyme. Put plainly: ENPP1 Enzyme Assay with TMP-pNP Substrate (absorbance at 405 nm). The class given is biochemical. The settings on record: read-out: TMP-pNP: % inhibition at 10 uM; 10 uM compound; 200 μM TMP-pNP substrate; 15 ng/well enzyme. As for the experimental part: ENPP1 Enzyme Assay with TMP-pNP Substrate:
ENPP-1 hydrolyzes thymidine 5′monophosphate p-nitrophenyl ester (TMP-pNP) to nucleotide-5′-monophosphate and p-nitrophenol, which is a chromogenic product. The amount of p-nitrophenol product formed is measured using its absorbance at 405 nm, which is directly proportional to enzyme activity. Different concentrations of inhibitors (synthetic molecules #1-7; see Table 1) were pre-incubated with 15 ng/well of human ENPP-1 enzyme (R&D Systems) for 15 minutes at 37° C. The reaction was initiated by adding 200 μM TMP-pNP and incubating for 10 minutes at 37° C. […] The amount of product formed was measured directly ina Tecan® spectrophotometer. Maximal activity control samples (containing enzyme, substrate, and buffer in the absence of ENPP1 inhibitors: MAX) and background control samples (containing enzyme, substrate, and buffer plus a fully inhibitory concentration (3 μM) of the reference ENPP1 Inhibitor, MV-0000002: MIN) are simultaneously evaluated in order to calculate the percent inhibition at each compound concentration as follows: […]
The IC50 values for percent inhibition versus compound concentration were determined by fitting the inhibition curves (percent inhibition versus inhibitor concentration) using a four-parameter variable slope model in GraphPad Prism® software. […]

Regarding `COc1cc2ncnc(N3CCC4(CC3)CN(S(N)(=O)=O)C4)c2cc1OC` [compound 5, 7-(6,7-dimethoxyquinazolin-4-yl)-2,7-diazaspiro[3.5]nonane-2-sulfonamide], the inhibition at 10 µM in assay [1] and in assay [2] was at least 75% each time. `COc1cc2ncnc(N3CCc4c(cccc4S(N)(=O)=O)C3)c2cc1OC` [compound 6, 2-(6,7-dimethoxyquinazolin-4-yl)-1,2,3,4-tetrahydroisoquinoline-5-sulfonamide] had an inhibition at 1 µM in assay [1] of at least 75%. For the molecule `COc1cc2ncc(C(N)=O)c(N3CCC(CCNS(N)(=O)=O)CC3)c2cc1OC` [compound 2, 6,7-dimethoxy-4-(4-(2-(sulfamoylamino)ethyl)piperidin-1-yl)quinoline-3-carboxamide], the inhibition at 1 µM in assay [1] is at least 75%. In assay [2], the inhibition at 10 µM was at least 75%. For the molecule `COc1cc2ncnc(NCCc3cccc(NS(N)(=O)=O)c3)c2cc1OC` [compound 7, N-(3-(2-((6,7-dimethoxyquinazolin-4-yl)amino)ethyl)phenyl)sulfonic amide], the inhibition at 10 µM in assay [1] was at least 75%. Same read-out and setting: the result for `Cn1ncc2c(N3CCC(CCNS(N)(=O)=O)CC3)ncnc21` [compound 3, N-(2-(1-(1-methyl-1H-pyrazolo[3,4-d]pyrimidin-4-yl)piperidin-4-yl)ethyl)sulfonic amide] reads at least 75%.

For the origin of these results see patent publication US20210023234A1, “ECTONUCLEOTIDE PYROPHOSPHATE-PHOSPHODIESTERASE (ENPP) CONJUGATES AND USES THEREOF” (AbbVie Inc., priority 2018, published 2021).
